Where a name gives a salt, the structure may show the parent alone.
Tests used:
5HT1A receptor = target: T1, 5HT1A receptor (Rattus norvegicus, UniProt P19327); experiment: In-Vitro inhibition of 5HT1A receptor binding (3H-8-OH-DPAT); set-up: species or system rat (male Wistar); conditions: 3H-8-OH-DPAT 1 nM, rat frontal cortex and hippocampus, 37° C., 10 min
T1 sequence (P19327 1-422): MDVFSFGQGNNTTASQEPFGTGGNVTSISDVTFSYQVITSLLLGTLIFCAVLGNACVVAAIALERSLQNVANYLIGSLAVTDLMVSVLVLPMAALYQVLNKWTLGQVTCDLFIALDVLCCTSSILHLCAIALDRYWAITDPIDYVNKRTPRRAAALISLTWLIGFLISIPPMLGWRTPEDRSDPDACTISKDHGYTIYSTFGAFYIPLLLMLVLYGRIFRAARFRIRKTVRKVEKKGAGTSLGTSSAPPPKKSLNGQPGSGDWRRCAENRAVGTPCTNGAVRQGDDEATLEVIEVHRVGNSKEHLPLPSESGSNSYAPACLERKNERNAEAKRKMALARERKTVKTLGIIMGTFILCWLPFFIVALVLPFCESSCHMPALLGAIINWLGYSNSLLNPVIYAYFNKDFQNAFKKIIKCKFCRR
Method: In-Vitro inhibition of 5HT1A receptor binding
(§1) Radioactive-labelled ligand ^3 H-80H-DPAT is incubated with isolated cell-membrane fragments at 37° C. for a given period of time. Following completed incubation, the incubate is filtered through GF/F filters which are rinsed after filtration to remove unspecifically adhered radioactivity. As opposed to low-molecular compounds, membrane fragments are not rinsed through the filters, the radioactivity bound to the filters indicates the amount of ligand bound specifically as well as nonspecifically to the membranes.
Male Wistar rats, 150-200 g are decapitated, and frontal cortex (approx. 200 mg) and hippocampus (approx. 70 mg) homogenized in 2×10 ml ice-cold DPAT buffer for 20 sec. applying polytron kinematica setting 6. Centrifuged at 20,000 rpm for 10 min. at 4° C. The pellet is transferred to 2×10 ml ice-cold DPAT buffer, homogenized for 20 sec. and preincubated for 10 min. at 37° C. Centrifuged at 20,000 rpm for 10 min. at 4° C. Final pellet added to 125×vol. of same buffer with 10 μM paragylin added (ex. 270 mg tissue in 33.75 ml DPAT buffer containing paragylin). Prepared fresh every day. Use within 30 minutes.
1,250 μl tissue 25 μl ^3 H-80H-DPAT (1 nM) 25 μl test substance/H2 O/blind serotonin (10 μM)
Incubation at 37° C. for 10 min.--at 10 sec. intervals. To the tubes is added 10 ml ice-cold 0.9% NaCl. Filtration through GF/F filters (use gloves). This procedure is repeated. Filters are placed in counting vials and 4 ml optiflow added (prepare in fume cupboard, use gloves). Counted at window 0-19 of the beta- counter (Pachard). Note that receptor box and lid are rinsed thoroughly in H2 O after use to avoid contamination. Further the analytical site is cleaned carefully every day.
(§2) Dissolved in H2 O, EtOH, MeOH or DMSO and further diluted in H2 O. The DPAT binding will stand concentrations of up to approx. 5% of these solvents without affecting the binding. Most stock solutions are stable at 4° C. Attention should, however, be paid to any precipitation, change in colour etc. Test-substance dilutions are always prepared fresh every day. When weighing out test substances, it is attempted to weigh out approx. 1 mg of substance. Less than 0.8 mg must never be weighed out and only infrequently more than 2 mg (for economy reasons) dependent, however on conc./assay.

Alpha1 receptor = experiment: In-Vitro Inhibition of Alpha1-Receptor Binding (3H-Prazosin); set-up: species or system rat (male Wistar); conditions: 3H-Prazosin 0.5 nM, rat cortex, 25° C., 30 min; read-out: Receptor binding IC50 α1
Method: In-Vitro Inhibition of Alpha1 -Receptor Binding, Radioactive-labelled ligand ^3 H-Prazosin is incubated with isolated cell-membrane fragments at 25° C. for a given period of time. Following completed incubation, the incubate is filtered through GF/B filters, which are rinsed following filtration to remove unspecifically adhered radioactivity. As opposed to low- molecular compounds, membrane fragments are not rinsed through the filters, the radioactivity bound to the filters indicates the amount of ligand bound specifically as well as nonspecifically to the membranes. The procedure is performed in ice bath. Polytron kinematica is rinsed with milli-Q-H2 O before and after use. Male Wistar rats, 150-200 g are decapitated, cortex is removed quickly and weighed (approx. 500 mg). Cortex is transferred to a centrifuging vial containing 10 ml ice-cold D2 buffer. Homogenization applying polytron kinematica (homogenizer) setting 6 for 20 sec. The homogenizer is rinsed with 10 ml D2 buffer in another centrifuging vial. The 10 ml rinsing buffer is added to the tissue vial. Centrifugation at 18,000 rpm for 12 min. at 4° C. This is repeated once. Final pellet is added to 400×vol. of same buffer. (Ex. 500 mg cortex in 200 ml D2 buffer). Can be stored for 30 min. at 0° C. 2,000 μl tissue 25 μl ^3 H-Prazosin (0.5 nM) 25 μl test substance/H2 O/blind Phentolamine (10 μM) Incubation for 30 min. at 25° C. 10 ml of ice-cold 0.9% NaCl is added to the tubes and filtered through GF/B filters (use gloves). This procedure is repeated. Filters are placed in counting vials and 4 ml opti-flour is added (perform in fume cupboard, use gloves). Counting is performed at window 0-19 of the betacounter (Pachard). […] Further, the analytical site is cleaned carefully every day after use. Dissolved in H2 O, EtOH, MeOH or DMSO and further diluted in H2 O. […] Most stock solutions are stable at 4° C. Attention should, however, be paid to any precipitation, change in colour etc. Test-substance dilutions are always prepared fresh every day. When weighing out test substances, it is attempted to weigh out approx. 1 mg of substance. Less than 0.8 mg must never be weighed out and only infrequently more than 2 mg (for economy reasons) dependent, however, on conc./ass.

5HT2 receptor = target: T2, 5HT2 receptor (Rattus norvegicus, UniProt P14842); experiment: In Vitro Inhibition of 5HT2-Receptor Binding (3H-Ketanserine); set-up: species or system rat (male Wistar); conditions: 3H-Ketanserine 0.4 nM, rat frontal cortex, 37° C., 15 min
T2 construct: incubated with isolated cell-membrane fragments; from tissue; host or cells: frontal cortex of male Wistar rats (membranes)
T2 sequence (P14842 whole entry, the tested form may be a part): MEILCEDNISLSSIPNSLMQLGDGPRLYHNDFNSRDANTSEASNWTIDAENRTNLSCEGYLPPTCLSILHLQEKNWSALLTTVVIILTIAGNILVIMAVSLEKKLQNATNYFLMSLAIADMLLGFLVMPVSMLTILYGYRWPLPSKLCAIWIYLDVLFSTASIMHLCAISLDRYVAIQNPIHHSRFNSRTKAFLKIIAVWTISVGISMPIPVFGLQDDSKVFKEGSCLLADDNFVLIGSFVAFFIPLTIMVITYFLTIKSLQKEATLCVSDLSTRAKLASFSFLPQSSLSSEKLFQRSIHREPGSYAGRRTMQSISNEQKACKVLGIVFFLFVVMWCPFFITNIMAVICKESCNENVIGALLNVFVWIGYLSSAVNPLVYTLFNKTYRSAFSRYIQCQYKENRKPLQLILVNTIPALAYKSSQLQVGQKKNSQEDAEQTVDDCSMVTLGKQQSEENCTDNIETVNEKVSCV
Method: In Vitro Inhibition of 5HT2 -Receptor Binding
as §1, with “H-Ketanserine” for “H-80H-DPAT”, “GF/B” for “GF/F”, “non-specifically” for “nonspecifically”
The preparation is made in ice bath. Polytron kinematica is rinsed with milli-Q-H2 O before and after use. Male Wistar rats, 150-200 g are decapitated. Frontal cortex is removed quickly and weighed (approx. 200 mg). Frontal cortex is added to centrifuging vial containing 10 ml ice-cold D2 buffer. Homogenization applying polytron kinematica (homogenizer) setting 6 for 20 sec. The homogenizer is rinsed with 10 ml D2 buffer in another centrifuging vial. The 10 ml rinsing buffer is added to the tissue vial. Centrifuged at 18,000 rpm for 10 min. at 4° C. Final pellet is transferred to 125×vol. of same buffer. (Ex. 200 mg in 25 ml D2 buffer). Can be stored for approx. 30 min. at 0° C.
25 μl ^3 H-Ketanserine (0.4 nM)
25 μl test substance/H2 O/blind cyproheptadine (2 μM)
Incubation for 15 min. at 37° C.
10 ml ice-cold 0.9% NaCl is added to the tubes. Filtration is performed through GF/B filters (use gloves). This procedure is repeated. Filters are placed in counting vials, and 4 ml opti- flour is added (prepare in fume cupboard, use gloves). Counting at window 0-19 of the beta-counter (Pachard). Note that receptor box and lid are rinsed thoroughly in H2 O after use to avoid contamination. Further the analytical site is cleaned carefully every day.
as §2, with “The 5HT2” for “The DPAT”, “always made” for “always prepared”, “test substance,” for “test substances,”, “dependent, however,” for “dependent, however”

5-HT1A receptors = conditions: cited from earlier work
anxiety, depression = conditions: clinical; cited from earlier work
[1] = test system: acetic acid-induced writhings in mice; experiment: Antagonism of Acetic Acid-Induced Writhings In Mice; assay type: in vivo, mouse (NMRI); conditions: Mus musculus, sc; s.c. 30 min before acetic acid 0.5 per cent i.p.; 50 per cent protection
Method: Antagonism of Acetic Acid-Induced Writhings In Mice
In mice i.p. injection of acetic acid induces a writhing syndrome which is antagonized by analgesics (Siegmund et al., 1957; Eckhardt et al., 1957).
Acetic acid 0.5 per cent is injected i.p. (0.15 ml/10 g body weight) to 6 mice (NMRI, either sex weighing 20-25 g) pretreated with physiological saline (controls) and to 6 mice pretreated with test substance. In the controls acetic acid induces a syndrome characterized by contraction of abdomen, turning of trunk and extension of hind limbs. Saline and test substances are administered s.c. 30 min. before acetic acid. The number of writhings is counted 5-15 min. after injection of acetic acid.
The activity is expressed as per cent protection: [formula]
The effect of active substances is evaluated by a dose response curve, log dose on the abscissa, and per cent protection on the ordinate. The potency is expressed as the dose (ED50 in mg/kg giving 50 per cent protection against writhings.
This test is used as a screening test for analgesics. Additional results from other screening tests are required to exclude active anti-writhing substances without analgesic effect.

5-HT2 receptor = conditions: cited from earlier work
psychosis = conditions: in vivo; cited from earlier work
[2] = test system: 5HT2, alpha1-adrenergic and dopaminergic receptors; conditions: cited from earlier work
[3] = test system: ischemic neuronal damage in the gerbil; conditions: cited from earlier work
dopamine D2 receptors = conditions: cited from earlier work

Q: Which IC50 (5HT1A receptor) does the source give for `COc1cc(NC(=S)OCCCN2CCN(c3ccccc3Cl)CC2)cc(OC)c1OC` [Example 24, 4-(2-Chlorophenyl)-1-(3-[3,4,5-trimethoxyphenyl(thiocarbamoyl)oxy]propyl)piperazine, hydrochloride] here?
A: The IC50 was 61 nM.

Q: What about the IC50 (Alpha1 receptor) of the same molecule?
A: Its IC50 is 7.5 nM.

Q: And the IC50 (5HT2 receptor)?
A: Its IC50 is 49 nM.

Q: Which “binding affinity / selectivity for 5-HT1A receptors (in words)” value (5-HT1A receptors) does the source give for `O=C1CC2(CCCC2)CC(=O)N1CCCCN1CCN(c2ncccn2)CC1` [buspirone] here?
A: Its value is “selectivity for 5-HT1A receptors”.

Q: And the “anxiolytic / antidepressant efficacy (in words)” value (anxiety, depression)?
A: The value was “effective anxiolytic agent”.

Q: For `CCOC(=O)C1(c2ccccc2)CCN(C)CC1` [Pethidine, reference compound], which ED50 [1] is on record?
A: The ED50 was 9.3 mg/kg.

Q: With `Cl.O=C(Nc1ccc2c(c1)OCCO2)OCCCN1CCN(c2cccc(Cl)c2)CC1` [Example 18, 4-(3-Chlorophenyl)-1-[3-(3,4-ethylenedioxyphenylcarbamoyloxy)propyl]piperazine, hydrochloride] as the molecule, how does the ED50 [1] read?
A: Its ED50 is 7 mg/kg.

Q: For `O=C(c1ccc(F)cc1)C1CCN(CCn2c(=O)[nH]c3ccccc3c2=O)CC1` [ketanserin], which “affinity for / antagonism of 5-HT2 receptor (in words)” value (5-HT2 receptor) is on record?
A: The value was “high affinity”.

Q: For `Cc1nc2sccn2c(=O)c1CCN1CCC(=C(c2ccc(F)cc2)c2ccc(F)cc2)CC1` [Ritanserin], which “anxiolytic / antidepressant efficacy (in words)” value (anxiety, depression) is on record?
A: Its value is “demonstrate clinical efficacy as anxiolytic-antidepressant agents”.

Q: With `CN1CCN(C2=Nc3cc(Cl)ccc3Nc3ccccc32)CC1` [clozapine] as the molecule, how does the “antipsychotic properties (in words)” value (psychosis) read?
A: Its value is “unprecedented antipsychotic potential”.

Q: And the “binding to 5HT2, alpha1-adrenergic and dopaminergic receptors (in words)” value [2]?
A: Its value is “nonselectively binds”.

Q: Which “binding affinity / selectivity for 5-HT1A receptors (in words)” value (5-HT1A receptors) does the source give for `CCCN(CCC)C1CCc2cccc(O)c2C1` (centres unmarked) [Example 8-OH-DPAT, 8-hydroxy-2-(di-n-propylamino)tetralin] here?
A: Its value is “high affinity”.

Q: And the “protective effect on ischemic neuronal damage in the gerbil (in words)” value [3]?
A: The value was “exhibit a protective effect on ischemic neuronal damage”.

Q: With `Cl.O=C(Nc1ccc2c(c1)OCO2)OCCCN1CCN(c2cccc(Cl)c2)CC1` [Example 15, 4-(3-Chlorophenyl)-1-[3-(3,4-methylenedioxyphenylcarbamoyloxy)propyl]piperazine, hydrochloride] as the molecule, how does the ED50 [1] read?
A: The ED50 was 5.6 mg/kg.

Q: For `CCN(CC)CCOC(=O)C(Cc1cccc2ccccc12)CC1CCCO1` (centres unmarked) [naftidrofuryl], which “protective effect on ischemic neuronal damage in the gerbil (in words)” value [3] is on record?
A: Its value is “exhibit a protective effect on ischemic neuronal damage”.

Q: For `Cc1nc2n(c(=O)c1CCN1CCC(c3noc4cc(F)ccc34)CC1)CCCC2` [Risperidone], which “antagonism of dopamine D2 receptors (in words)” value (dopamine D2 receptors) is on record?
A: The value was “potent antagonist”.

Q: What about the “antipsychotic properties (in words)” value (psychosis) of the same molecule?
A: The value was “antipsychotic properties”.

Reference: patent US5246935A, “Piperazinyl derivatives and methods of treating central nervous system ailments relating to the 5-HT2 receptor system” (Novo Nordisk A/S, priority 1990, dated 1993)
